Tested on: animal model of dry eye syndrome
Assay: Efficacy analysis of drugs using an animal model of dry eye syndrome (overall, FIGS. 1 to 15)
Type: in vivo, C57BL/6 mice
Settings: oral administration, overall statement
From the text: Experimental Example 1: Efficacy Analysis of Drugs Using an Animal Model of Dry Eye Syndrome
<1-1> Construction of an Animal Model of Dry Eye Syndrome
Eight-week old male C57BL/6 mice (Charles River laboratories) were quarantined for one week and divided into several groups of eight animals evenly according to their average body weight and standard deviation.
For experimental groups (administered with Examples […]), dry eye syndrome was induced by subcutaneous injection of scopolamine (2.5 mg/mL, Sigma-Aldrich) for 10 days with exposure to air draft (25-40% relative humidity) for 18 hours per day. Then, mice were orally administered with the suspensions of Examples 1 to 29, twice a day for total 10 days, respectively.
Meanwhile, for a normal group, neither the drug nor the vehicle was administered to normal mice. And, for a control group, the vehicle was administered to the mice with dry eye syndrome.

Compound: O=C(NC(Cc1cc(=O)[nH]c2ccccc12)C(=O)O)c1ccc(Cl)cc1 (stereo not shown) [Rebamipide, 2-(4-chlorobenzoyl-amino)-3-[2(1H)-quinolon-4-yl]propionic acid]
- therapeutic effects on dry eye syndrome: exhibits therapeutic effects on dry eye syndrome
